These results are taken from ChEMBL document CHEMBL5291721, “A preclinical secondary pharmacology resource illuminates target-adverse drug reaction associations of marketed drugs” (Nat Commun, 2023).

Assay [1] addresses T1, Prostaglandin G/H synthase 1 (Rattus norvegicus, UniProt Q63921).
T1 sequence (Q63921 whole entry): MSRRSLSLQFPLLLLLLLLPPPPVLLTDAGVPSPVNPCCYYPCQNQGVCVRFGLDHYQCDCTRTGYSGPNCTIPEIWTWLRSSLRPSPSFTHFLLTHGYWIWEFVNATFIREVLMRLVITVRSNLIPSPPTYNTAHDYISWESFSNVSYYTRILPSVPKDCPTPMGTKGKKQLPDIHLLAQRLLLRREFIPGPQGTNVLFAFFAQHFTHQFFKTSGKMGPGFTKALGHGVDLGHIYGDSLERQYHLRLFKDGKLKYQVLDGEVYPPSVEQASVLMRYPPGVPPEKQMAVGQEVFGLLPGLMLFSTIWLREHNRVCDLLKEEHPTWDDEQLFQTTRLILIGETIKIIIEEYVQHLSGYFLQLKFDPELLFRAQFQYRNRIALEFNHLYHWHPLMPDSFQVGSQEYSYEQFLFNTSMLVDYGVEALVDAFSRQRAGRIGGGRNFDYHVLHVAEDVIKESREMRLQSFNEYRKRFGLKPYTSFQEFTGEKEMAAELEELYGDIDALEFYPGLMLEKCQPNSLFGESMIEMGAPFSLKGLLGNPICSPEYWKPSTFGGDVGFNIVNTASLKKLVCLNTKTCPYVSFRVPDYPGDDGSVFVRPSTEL
The class given is functional.

In assay [2] the target is T2, 5-hydroxytryptamine receptor 2A (Homo sapiens, UniProt P28223). The class given is functional, cell-based.
Assay [3] concerns the target Growth hormone secretagogue receptor type 1 (Homo sapiens, UniProt Q92847).
For assay [4], the target named is cGMP-inhibited 3',5'-cyclic phosphodiesterase 3A (Homo sapiens, UniProt Q14432). The class given is functional.
For assay [5], the target named is T3, Alpha-2A adrenergic receptor (Homo sapiens, UniProt P08913).
T3 sequence (P08913 whole entry): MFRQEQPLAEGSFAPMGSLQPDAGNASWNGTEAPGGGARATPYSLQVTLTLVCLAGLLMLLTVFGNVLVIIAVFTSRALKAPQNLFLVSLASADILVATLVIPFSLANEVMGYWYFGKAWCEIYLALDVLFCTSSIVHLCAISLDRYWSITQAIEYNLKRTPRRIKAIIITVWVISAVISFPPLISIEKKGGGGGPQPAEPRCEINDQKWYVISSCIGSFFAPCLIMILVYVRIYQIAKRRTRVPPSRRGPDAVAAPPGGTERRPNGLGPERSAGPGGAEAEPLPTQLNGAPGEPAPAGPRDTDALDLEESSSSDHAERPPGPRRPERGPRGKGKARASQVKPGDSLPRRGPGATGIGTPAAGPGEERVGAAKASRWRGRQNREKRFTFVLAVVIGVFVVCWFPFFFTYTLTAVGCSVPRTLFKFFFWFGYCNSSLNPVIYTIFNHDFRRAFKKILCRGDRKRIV
The class given is functional, cell-based.

The target of assay [6] is T2, 5-hydroxytryptamine receptor 2A. The class given is functional, cell-based. This is another data set of the same source.
Assay [7] has as its target T4, Muscarinic acetylcholine receptor M2 (Homo sapiens, UniProt P08172).
T4 sequence (P08172 whole entry): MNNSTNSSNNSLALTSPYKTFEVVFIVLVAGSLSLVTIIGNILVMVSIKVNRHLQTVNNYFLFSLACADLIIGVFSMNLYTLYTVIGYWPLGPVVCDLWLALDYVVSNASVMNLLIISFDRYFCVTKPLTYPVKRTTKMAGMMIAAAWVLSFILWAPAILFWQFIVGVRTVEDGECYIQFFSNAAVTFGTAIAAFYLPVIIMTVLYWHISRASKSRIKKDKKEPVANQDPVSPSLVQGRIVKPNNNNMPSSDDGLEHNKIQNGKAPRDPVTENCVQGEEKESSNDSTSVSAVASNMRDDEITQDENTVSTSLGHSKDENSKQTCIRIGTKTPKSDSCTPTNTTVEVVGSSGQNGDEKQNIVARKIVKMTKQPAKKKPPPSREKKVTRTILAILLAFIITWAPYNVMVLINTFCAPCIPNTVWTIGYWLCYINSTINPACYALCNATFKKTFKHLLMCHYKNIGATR
The class given is functional, cell-based.

For assay [8], the target named is T5, 5-hydroxytryptamine receptor 1A (Homo sapiens, UniProt P08908).
T5 sequence (P08908 whole entry): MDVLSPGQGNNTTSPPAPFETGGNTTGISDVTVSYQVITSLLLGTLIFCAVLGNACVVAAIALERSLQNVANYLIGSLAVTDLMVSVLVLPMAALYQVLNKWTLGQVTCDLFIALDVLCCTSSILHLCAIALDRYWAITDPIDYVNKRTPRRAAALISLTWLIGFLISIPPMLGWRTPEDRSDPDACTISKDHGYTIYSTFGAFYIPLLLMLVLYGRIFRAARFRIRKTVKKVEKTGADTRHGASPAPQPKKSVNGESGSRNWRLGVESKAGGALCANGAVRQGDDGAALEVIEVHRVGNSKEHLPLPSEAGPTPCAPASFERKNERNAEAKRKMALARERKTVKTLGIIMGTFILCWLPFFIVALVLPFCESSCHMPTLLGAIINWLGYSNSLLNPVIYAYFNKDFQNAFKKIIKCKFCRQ
The class given is functional, cell-based.

The target in a further assay is T6, Thromboxane A2 receptor (Homo sapiens, UniProt P21731).
T6 sequence (P21731 whole entry): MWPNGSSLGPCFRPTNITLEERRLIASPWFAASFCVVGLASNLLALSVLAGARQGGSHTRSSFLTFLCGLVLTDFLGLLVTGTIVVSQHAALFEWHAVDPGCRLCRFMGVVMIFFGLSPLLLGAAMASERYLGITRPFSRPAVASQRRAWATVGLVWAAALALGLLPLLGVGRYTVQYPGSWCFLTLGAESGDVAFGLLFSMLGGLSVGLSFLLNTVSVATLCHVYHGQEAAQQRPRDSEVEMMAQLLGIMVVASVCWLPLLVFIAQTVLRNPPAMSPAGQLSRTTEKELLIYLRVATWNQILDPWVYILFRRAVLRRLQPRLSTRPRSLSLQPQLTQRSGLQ

Another assay deals with Vasopressin V2 receptor (Homo sapiens, UniProt P30518).
In assay [9] the target is Beta-1 adrenergic receptor (Homo sapiens, UniProt P08588). The class given is functional.
The next assay concerns the target Histamine H3 receptor (Homo sapiens, UniProt Q9Y5N1).
Note: assay procedure not described here.

Sequence of cGMP-inhibited 3',5'-cyclic phosphodiesterase 3A (Q14432 whole entry): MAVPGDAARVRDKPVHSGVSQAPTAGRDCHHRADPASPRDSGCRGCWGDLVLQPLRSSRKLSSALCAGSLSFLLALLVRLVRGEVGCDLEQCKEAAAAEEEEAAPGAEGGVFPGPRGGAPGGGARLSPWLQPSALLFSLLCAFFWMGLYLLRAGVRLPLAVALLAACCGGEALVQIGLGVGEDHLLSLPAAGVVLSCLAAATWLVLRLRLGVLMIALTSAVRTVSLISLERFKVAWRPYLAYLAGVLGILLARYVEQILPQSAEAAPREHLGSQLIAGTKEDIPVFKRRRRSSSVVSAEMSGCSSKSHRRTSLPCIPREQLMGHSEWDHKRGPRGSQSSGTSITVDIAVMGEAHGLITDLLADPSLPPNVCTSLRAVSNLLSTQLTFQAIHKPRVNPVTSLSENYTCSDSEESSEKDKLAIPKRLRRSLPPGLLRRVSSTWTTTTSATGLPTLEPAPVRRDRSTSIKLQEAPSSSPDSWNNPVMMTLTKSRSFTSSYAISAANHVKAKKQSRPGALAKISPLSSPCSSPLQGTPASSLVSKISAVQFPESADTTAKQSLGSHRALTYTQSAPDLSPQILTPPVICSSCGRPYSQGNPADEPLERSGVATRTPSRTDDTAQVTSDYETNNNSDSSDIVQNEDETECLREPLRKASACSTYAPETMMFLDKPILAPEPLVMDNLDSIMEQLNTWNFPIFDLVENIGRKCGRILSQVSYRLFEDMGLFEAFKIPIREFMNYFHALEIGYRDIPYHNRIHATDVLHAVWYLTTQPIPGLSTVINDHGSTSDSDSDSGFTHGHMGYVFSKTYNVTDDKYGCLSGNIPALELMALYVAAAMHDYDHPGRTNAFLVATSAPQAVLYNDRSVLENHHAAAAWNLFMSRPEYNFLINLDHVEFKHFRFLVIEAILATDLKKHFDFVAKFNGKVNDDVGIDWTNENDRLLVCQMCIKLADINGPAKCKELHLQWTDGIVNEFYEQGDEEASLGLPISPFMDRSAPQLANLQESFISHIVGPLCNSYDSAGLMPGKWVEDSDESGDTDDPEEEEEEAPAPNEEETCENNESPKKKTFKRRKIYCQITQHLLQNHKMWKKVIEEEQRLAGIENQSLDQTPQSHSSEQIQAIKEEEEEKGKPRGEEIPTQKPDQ
Sequence of Vasopressin V2 receptor (P30518 whole entry): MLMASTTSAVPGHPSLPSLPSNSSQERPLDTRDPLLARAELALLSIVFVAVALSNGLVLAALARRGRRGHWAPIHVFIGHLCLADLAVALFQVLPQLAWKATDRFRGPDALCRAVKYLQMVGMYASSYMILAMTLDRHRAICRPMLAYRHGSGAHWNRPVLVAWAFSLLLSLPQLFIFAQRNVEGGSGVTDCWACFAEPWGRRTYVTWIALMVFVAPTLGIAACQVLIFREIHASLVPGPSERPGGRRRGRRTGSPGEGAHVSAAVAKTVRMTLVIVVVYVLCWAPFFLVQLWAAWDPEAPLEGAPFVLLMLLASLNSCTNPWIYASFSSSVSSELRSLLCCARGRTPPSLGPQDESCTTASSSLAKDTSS
Sequence of Beta-1 adrenergic receptor (P08588 whole entry): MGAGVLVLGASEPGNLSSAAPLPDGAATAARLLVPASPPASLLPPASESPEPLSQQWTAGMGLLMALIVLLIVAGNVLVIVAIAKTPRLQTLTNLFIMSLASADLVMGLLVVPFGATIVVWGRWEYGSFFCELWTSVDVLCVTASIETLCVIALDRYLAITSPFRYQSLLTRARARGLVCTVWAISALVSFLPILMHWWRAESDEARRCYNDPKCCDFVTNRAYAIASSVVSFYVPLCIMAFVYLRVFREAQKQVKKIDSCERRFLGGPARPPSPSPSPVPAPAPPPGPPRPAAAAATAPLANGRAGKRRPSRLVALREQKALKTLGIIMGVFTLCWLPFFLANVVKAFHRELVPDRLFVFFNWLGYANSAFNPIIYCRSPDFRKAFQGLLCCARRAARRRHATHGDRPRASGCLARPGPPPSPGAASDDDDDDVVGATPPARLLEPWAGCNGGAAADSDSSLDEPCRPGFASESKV
T2 sequence (P28223 whole entry): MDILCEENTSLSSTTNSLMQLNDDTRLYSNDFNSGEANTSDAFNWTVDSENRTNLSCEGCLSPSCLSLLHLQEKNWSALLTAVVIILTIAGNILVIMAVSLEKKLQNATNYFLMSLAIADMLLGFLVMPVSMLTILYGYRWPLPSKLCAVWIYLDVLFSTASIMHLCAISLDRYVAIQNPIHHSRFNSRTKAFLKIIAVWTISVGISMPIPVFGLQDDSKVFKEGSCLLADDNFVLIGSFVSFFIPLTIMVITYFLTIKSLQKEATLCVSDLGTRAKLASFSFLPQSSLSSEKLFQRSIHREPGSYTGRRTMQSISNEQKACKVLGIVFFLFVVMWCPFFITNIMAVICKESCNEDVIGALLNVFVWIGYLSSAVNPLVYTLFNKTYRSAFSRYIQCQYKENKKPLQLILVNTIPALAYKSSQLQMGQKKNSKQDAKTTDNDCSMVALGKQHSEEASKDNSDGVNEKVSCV
Sequence of Histamine H3 receptor (Q9Y5N1 whole entry): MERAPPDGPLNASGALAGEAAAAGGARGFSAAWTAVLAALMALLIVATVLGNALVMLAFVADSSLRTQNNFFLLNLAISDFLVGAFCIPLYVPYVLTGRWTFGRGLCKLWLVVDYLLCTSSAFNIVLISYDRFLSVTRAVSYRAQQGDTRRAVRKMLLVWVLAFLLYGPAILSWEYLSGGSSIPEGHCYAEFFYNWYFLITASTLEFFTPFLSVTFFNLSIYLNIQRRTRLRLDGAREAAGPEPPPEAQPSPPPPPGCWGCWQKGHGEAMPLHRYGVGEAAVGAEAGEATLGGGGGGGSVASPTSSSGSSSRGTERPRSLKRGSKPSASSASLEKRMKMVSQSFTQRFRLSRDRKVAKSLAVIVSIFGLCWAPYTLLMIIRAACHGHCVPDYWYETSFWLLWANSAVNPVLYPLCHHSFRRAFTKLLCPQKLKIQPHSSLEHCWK
Sequence of Growth hormone secretagogue receptor type 1 (Q92847 whole entry): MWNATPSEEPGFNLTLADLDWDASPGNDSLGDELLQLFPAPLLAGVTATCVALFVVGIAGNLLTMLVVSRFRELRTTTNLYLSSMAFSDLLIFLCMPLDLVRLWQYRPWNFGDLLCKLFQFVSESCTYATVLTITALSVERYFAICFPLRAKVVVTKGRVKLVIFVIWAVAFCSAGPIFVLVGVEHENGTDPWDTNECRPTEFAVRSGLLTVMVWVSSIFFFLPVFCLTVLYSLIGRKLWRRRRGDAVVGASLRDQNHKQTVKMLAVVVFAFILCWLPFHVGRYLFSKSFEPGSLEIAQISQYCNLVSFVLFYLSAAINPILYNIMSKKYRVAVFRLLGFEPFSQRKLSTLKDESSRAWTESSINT

For `Nc1nc(F)nc2c1ncn2[C@@H]1O[C@H](COP(=O)(O)O)[C@@H](O)[C@@H]1O` [FLUDARABINE PHOSPHATE], the AC50 in assay [1], in assay [2], in assay [3], in [4], in [5] and in [6] was greater than 30 µM throughout. In addition, the AC50 (in [7]; in [8]; at Thromboxane A2 receptor; at Vasopressin V2 receptor; in assay [9]; at Histamine H3 receptor) was greater than 30 µM in each case.
Consider `O=C(O)c1ccccc1Nc1cccc(C(F)(F)F)c1` [FLUFENAMIC ACID], for which the AC50 in assay [1] was 18.3 µM; in assay [2], greater than 30 µM; in [3], greater than 30 µM; in [4], greater than 30 µM; in [5], greater than 30 µM; in assay [6] it was greater than 30 µM. Also, the AC50 was greater than 10 µM in [7]; greater than 30 µM in assay [8]; greater than 30 µM on Thromboxane A2 receptor; greater than 30 µM at Vasopressin V2 receptor; greater than 10 µM in assay [9]; greater than 10 µM on Histamine H3 receptor.
Consider `C#C[C@]1(O)CC[C@H]2[C@@H]3CCC4=CC(=O)CCC4=C3C=C[C@@]21CC` [GESTRINONE], for which the AC50 in assay [1] was greater than 30 µM; in assay [2] it was greater than 30 µM; in [3] it was greater than 30 µM; in assay [4], 2.9 µM; in [5], 11 µM; in [6], greater than 30 µM. For the same compound, the AC50 (in assay [7]; in [8]; at Thromboxane A2 receptor; at Vasopressin V2 receptor; in assay [9]; at Histamine H3 receptor) was greater than 30 µM throughout.
Regarding `CCCCCCOC(=O)CCC(=O)CN` [HEXAMINOLEVULINATE], the AC50 in [1] is 9.4 µM; in assay [2], greater than 30 µM; in [3], greater than 30 µM; in assay [4], greater than 30 µM; in assay [5], greater than 30 µM; in assay [6], greater than 30 µM. The AC50 (in assay [7]; in [8]; on Thromboxane A2 receptor; on Vasopressin V2 receptor; in assay [9]; on Histamine H3 receptor) was greater than 30 µM in each case.
Turning to `CC(C)OC(=O)C(C(=O)OC(C)C)=C1SC=CS1` [MALOTILATE], the AC50 in [1], in assay [2], in assay [3], in [4], in assay [5] and in assay [6] was greater than 30 µM in each case. For the same compound, the AC50 (in assay [7]; in assay [8]; on Thromboxane A2 receptor; on Vasopressin V2 receptor; in [9]; on Histamine H3 receptor) was greater than 30 µM each time.
In the case of `CN(c1nccc(=O)[nH]1)C1CCN(c2nc3ccccc3n2Cc2ccc(F)cc2)CC1` [MIZOLASTINE], the AC50 was greater than 30 µM in assay [1]; greater than 30 µM in assay [2]; greater than 30 µM in [3]; 6.1 µM in [4]; 23 µM in [5]; greater than 30 µM in [6]. Moreover, the AC50 (in [7]; in assay [8]; at Thromboxane A2 receptor; on Vasopressin V2 receptor; in assay [9]; on Histamine H3 receptor) was greater than 30 µM throughout.
Turning to `CC(CCc1ccccc1)NC(C)C(O)c1ccc(O)cc1` (configuration not stated) [NYLIDRIN], the AC50 is greater than 30 µM in assay [1]; greater than 30 µM in assay [2]; greater than 30 µM in assay [3]; greater than 30 µM in assay [4]; 19 µM in assay [5]; greater than 30 µM in assay [6]. In addition, the AC50 was greater than 10 µM in [7]; greater than 10 µM in assay [8]; greater than 30 µM on Thromboxane A2 receptor; greater than 30 µM at Vasopressin V2 receptor; 3.95 µM in assay [9]; greater than 10 µM on Histamine H3 receptor.
Take `O=C1Nc2ccc(Cl)cc2C(c2ccccc2)=NC1O` (configuration not stated) [OXAZEPAM]: the AC50 was greater than 30 µM in assay [1]; greater than 30 µM in assay [2]; greater than 30 µM in assay [3]; greater than 30 µM in assay [4]; greater than 10 µM in assay [5]; greater than 30 µM in assay [6]. The AC50 was greater than 10 µM in assay [7]; greater than 10 µM in [8]; greater than 30 µM on Thromboxane A2 receptor; greater than 30 µM at Vasopressin V2 receptor; greater than 10 µM in assay [9]; greater than 10 µM on Histamine H3 receptor.
For `CC1(C)C(C=C(Cl)Cl)C1C(=O)OCc1cccc(Oc2ccccc2)c1` (configuration not stated) [PERMETHRIN], the AC50 is greater than 10 µM in assay [1]; greater than 10 µM in assay [2]; greater than 10 µM in [3]; greater than 30 µM in assay [4]; 9.7 µM in assay [5]; greater than 10 µM in assay [6]. Besides, the AC50 (in assay [7]; in assay [8]; at Thromboxane A2 receptor; at Vasopressin V2 receptor; in [9]; on Histamine H3 receptor) was greater than 10 µM throughout.
In the case of `CC[N+]1(C)CCCC(OC(=O)C(O)(c2ccccc2)c2ccccc2)C1` (configuration not stated) [PIPENZOLATE], the AC50 in [1], in assay [2], in assay [3], in assay [4], in assay [5] and in [6] was greater than 30 µM each time. Further, the AC50 was 0.023 µM in assay [7]; greater than 30 µM in assay [8]; greater than 30 µM at Thromboxane A2 receptor; greater than 30 µM at Vasopressin V2 receptor; greater than 30 µM in assay [9]; greater than 30 µM at Histamine H3 receptor.
Turning to `Cc1ccc(=O)n(-c2ccccc2)c1` [PIRFENIDONE], the AC50 in [1], in [2], in assay [3], in assay [4], in assay [5] and in assay [6] was greater than 30 µM in each case. Also, the AC50 (in assay [7]; in assay [8]; on Thromboxane A2 receptor; at Vasopressin V2 receptor; in assay [9]; at Histamine H3 receptor) was greater than 30 µM throughout.
